System: SARS-CoV-2
Assay: SARS-CoV-2 antiviral assay (dose-response, automated confocal imaging of infected cells)
Format: cell-based, severe acute respiratory syndrome coronavirus-2
Details: SARS-CoV-2, Vero81-derived F1G-red cells, MOI 0.2, 16 h, compounds at 1.56-25 µM
Method: Dose-response experiments were conducted to determine half-maximal inhibitory concentration, IC50 of the compounds on severe acute respiratory syndrome coronavirus-2 (SARS-CoV-2). Vero81-derived F1G-red cells seeded in 384-well plate were inoculated with SARS-CoV-2 at a multiplicity of infection (MOI) of 0.2, at 37°C, in the presence of each compound at 1.56, 3.13, 6.25, 12.5 and 25 µM. Images were acquired 16 h later using an InCell-6500 automated confocal microscope (Cytiva, Marlborough, United States). Infected cells and total cell numbers were quantified as previously described. Percentage of infection relative to the DMSO controls were obtained and IC50 were calculated using Prism 10 software (Graph Pad Inc., La Jolla, CA, USA). […] Table 2. IC50 of pure and synthetic compounds on SARS-CoV-2

Row | SMILES | IC50 [µM]
1 | CC(C)=CCC1=C(O)C(C(=O)C(C)C)=C(O)C(CC=C(C)C)(CC=C(C)C)C1=O [Colupulone, Co-lupulone] | < 7
2 | CC(C)=CCC1=C(O)C(CC=C(C)C)(CC=C(C)C)C(=O)C(C(=O)C(C)C)=C1O [LB.70-F2, 3,5-dihydroxy-4,6,6-tris(3-methylbut-2-en-1-yl)-2-(2-methylpropanoyl)cyclo-hexa-2,4-dien-1-one] | < 7

Same assay, conditions: Severe acute respiratory syndrome coronavirus 2, 16 h, SARS-CoV-2, Vero81-derived F1G-red cells, MOI 0.2, 16 h, compounds at 1.56-25 µM

Row | SMILES | IC50 [µM]
3 | CCC(C)C(=O)C1=C(O)C(CC=C(C)C)=C(O)C(CC=C(C)C)(CC=C(C)C)C1=O (centres unmarked) [AH8-F2, 3,5-dihydroxy-4,6,6-tris(3-methylbut-2-en-1-yl)-2-(2-methylbutanoyl)cyclohexa-2,4-dien-1-one] | < 25
4 | CCCC(=O)C1=C(O)C(CC=C(C)C)=C(O)C(CC=C(C)C)(CC=C(C)C)C1=O [AH10-F2, 2-butyryl-3,5-dihydroxy-4,6,6-tris(3-methylbut-2-en-1-yl)cyclohexa-2,4-dien-1-one] | < 14
5 | CC(C)=CCC1=C(O)C(CC=C(C)C)(CC=C(C)C)C(=O)C(C(=O)C(C)C)=C1O [AH15-F1, 3,5-dihydroxy-2-isobutyryl-4,6,6-tris(3-methylbut-2-en-1-yl)cyclohexa-2,4-dien-1-one] | < 14
6 | CC(=O)C1=C(O)C(CC=C(C)C)=C(O)C(CC=C(C)C)(CC=C(C)C)C1=O [AH16-F2, 2-acetyl-3,5-dihydroxy-4,6,6-tris(3-methylbut-2-en-1-yl)cyclohexa-2,4-dien-1-one] | > 25
7 | CCC(=O)C1=C(O)C(CC=C(C)C)=C(O)C(CC=C(C)C)(CC=C(C)C)C1=O [AH17-F2, 3,5-dihydroxy-4,6,6-tris(3-methylbut-2-en-1-yl)-2-propionylcyclohexa-2,4-dien-1-one] | > 25
8 | CCCCC(=O)C1=C(O)C(CC=C(C)C)=C(O)C(CC=C(C)C)(CC=C(C)C)C1=O [AH18-F4, 3,5-dihydroxy-4,6,6-tris(3-methylbut-2-en-1-yl)-2-pentanoylcyclohexa-2,4-dien-1-one] | < 14
9 | CC(C)=CCC1=C(O)C(CC=C(C)C)(CC=C(C)C)C(=O)C(C(=O)CCC(C)C)=C1O [AH39-F1, 3,5-dihydroxy-4,6,6-tris(3-methylbut-2-en-1-yl)-2-(4-methylpentanoyl)cyclohexa-2,4-dien-1-one] | < 25
10 | CCC(C)CC(=O)C1=C(O)C(CC=C(C)C)=C(O)C(CC=C(C)C)(CC=C(C)C)C1=O (centres unmarked) [AH40-F1, 3,5-dihydroxy-4,6,6-tris(3-methylbut-2-en-1-yl)-2-(3-methylpentanoyl)cyclohexa-2,4-dien-1-one] | > 25
11 | CC(C)=CCC1=C(O)C(CC=C(C)C)(CC=C(C)C)C(=O)C(C(=O)C=Cc2ccccc2)=C1O [AH41-F1, 2-cinnamoyl-3,5-dihydroxy-4,6,6-tris(3-methylbut-2-en-1-yl)cyclohexa-2,4-dien-1-one] | < 25
12 | CC(C)=CCc1c(O)cc(O)c(C(=O)C(C)C)c1O [AH62-F2, 2-methyl-1-(2,4,6-trihydroxy-3-(3-methylbut-2-en-1-yl)phenyl)propan-1-one] | < 7
13 | CC(C)=CCC1(CC=C(C)C)C(=O)C(C(=O)C(C)C)=C(O)C(C(=O)C(C)C)=C1O [AH66-F1, 1,1'-(2,4-dihydroxy-5,5-bis(3-methylbut-2-en-1-yl)-6-oxocyclohexa-1,3-diene-1,3-diyl)bis(2-methylpropan-1-one)] | < 25
14 | CC(C)=CCC1=C(O)C(C(=O)CC(C)C)=C(O)C(CC=C(C)C)(CC=C(C)C)C1=O [Lupulone] | < 7
